Test systems include KM12; UACC-257; OVCAR-8; Hs-578T; UO-31; NCI-H522; SF-268; SK-MEL-2; DU-145; HL-60; LOX IMVI; ACHN; MCF7; CCRF-CEM; EKVX; SNB-19; OVCAR-5; SF-539; K562.
What all share (assay): inhibition of tumour cell growth, NCI panel, 48 h

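In this assay, cells in 96-well plates receive the compound at five concentrations for 48 hours. Endpoints are linearly interpolated between the surrounding concentrations. Abbreviation: GI50, concentration required for 50% inhibition of growth.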 Calls of active or inactive are those of the source. Rule as the data show it: active = GI50 up to about 1.1 µM and inactive = higher.

Turning to `COc1ccccc1/C=C1\NC(=S)N(/C=C2\C(=O)Oc3ccccc3C2=O)C1=O`, the GI50 is 47 µM (inactive) in the test on KM12; 42.4 µM (inactive) in the test with UACC-257; 36.6 µM (inactive) in the test on OVCAR-8; > 100 µM (inactive) in the test with Hs-578T; 21.2 µM (inactive) in the test on UO-31; 39.4 µM (inactive) with NCI-H522. Also, the GI50 was 98.6 µM (inactive) in the test with SF-268; 62.1 µM (inactive) with SK-MEL-2; 21.1 µM (inactive) with DU-145; 9.84 µM (inactive) with HL-60; 60.5 µM (inactive) in the test with LOX IMVI; 55.6 µM (inactive) in the test with ACHN. Moreover, the GI50 in the test on MCF7 was 71.4 µM (inactive); in the test on CCRF-CEM, 23.4 µM (inactive); in the test on EKVX, 16.9 µM (inactive); with SNB-19 it was 38.2 µM (inactive); in the test with OVCAR-5 it was > 100 µM (inactive); in the test on SF-539, 25.5 µM (inactive).

Turning to `O=C1c2cc([N+](=O)[O-])sc2C(=O)c2ccsc21`, the GI50 in the test with KM12 is 0.407 µM (active); in the test with UACC-257 it was 0.242 µM (active); with OVCAR-8, 0.465 µM (active); in the test with Hs-578T it was 0.618 µM (active); in the test on UO-31, 1.2 µM (inactive); in the test with NCI-H522, 0.195 µM (active). For the same molecule, the GI50 was 0.361 µM (active) in the test on SF-268; 1.06 µM (active) in the test with SK-MEL-2; 0.273 µM (active) in the test with DU-145; 0.0216 µM (active) in the test with K562; < 0.01 µM (active) in the test with HL-60; 0.0687 µM (active) in the test with LOX IMVI. Further, the GI50 was 0.281 µM (active) in the test on ACHN; 0.213 µM (active) in the test with MCF7; 0.075 µM (active) with CCRF-CEM; 1.08 µM (active) in the test on EKVX; 1.89 µM (inactive) in the test with SNB-19; 1.69 µM (inactive) with OVCAR-5. Also, the GI50 in the test on SF-539 is 0.365 µM (active).

For the molecule `COC(=O)[C@@H]1OC(C)(c2ccccc2)O[C@H]1C(=O)OC`, the GI50 in the test on KM12, with UACC-257, with OVCAR-8, with Hs-578T, in the test with UO-31 and with NCI-H522 was > 100 µM (inactive) in each case. Also, the GI50 with SF-268 was > 100 µM (inactive); in the test on SK-MEL-2, > 100 µM (inactive); with DU-145, > 100 µM (inactive); in the test on K562, > 100 µM (inactive); with HL-60 it was 4.52 µM (inactive); in the test on LOX IMVI, > 100 µM (inactive). The GI50 in the test with ACHN is > 100 µM (inactive); in the test with MCF7, > 100 µM (inactive); in the test on CCRF-CEM it was 48.1 µM (inactive); with EKVX it was > 100 µM (inactive); with SNB-19, > 100 µM (inactive); in the test with OVCAR-5 it was > 100 µM (inactive). Further, the GI50 with SF-539 is > 100 µM (inactive).

With `COc1cc(NC(C)=O)ccc1C(=O)NN1C(=O)/C(=C/c2ccco2)N=C1c1ccccc1`, the GI50 in the test on OVCAR-8 is > 50 µM (inactive); in the test with Hs-578T, > 50 µM (inactive); in the test with UO-31, > 50 µM (inactive); in the test with NCI-H522, 24.5 µM (inactive); in the test with SF-268, > 50 µM (inactive); with SK-MEL-2, 14.3 µM (inactive). The GI50 was > 50 µM (inactive) in the test with DU-145; 20.5 µM (inactive) in the test with K562; 13.6 µM (inactive) in the test on HL-60; 34.2 µM (inactive) in the test with LOX IMVI; > 50 µM (inactive) in the test with ACHN; 34.3 µM (inactive) with MCF7. Moreover, the GI50 in the test with CCRF-CEM was 12.5 µM (inactive); in the test on EKVX it was > 50 µM (inactive); in the test with SNB-19, > 50 µM (inactive); in the test with OVCAR-5, > 50 µM (inactive); in the test on SF-539 it was 33.4 µM (inactive).

For `CC(C)(C)[Si](C)(C)OCC1OC(n2cnc3c(=O)[nH]cnc32)CC1O` (configuration not stated), the GI50 with KM12, in the test on UACC-257, with OVCAR-8, with Hs-578T, in the test on UO-31 and in the test on NCI-H522 was > 100 µM (inactive) each time. Besides, the GI50 in the test with SF-268, in the test with SK-MEL-2, in the test on DU-145, with K562, with HL-60 and with LOX IMVI was > 100 µM (inactive) each time. Moreover, the GI50 with ACHN, in the test with MCF7, in the test with CCRF-CEM, in the test on EKVX, in the test with SNB-19 and in the test on OVCAR-5 was > 100 µM (inactive) throughout. Further, in the test on SF-539, the GI50 is > 100 µM (inactive).

In the case of `COC(=O)C1(Cc2ccc3c(c2)CCC3)Cc2ccccc2C1`, the GI50 in the test on KM12 was 37.2 µM (inactive); in the test on UACC-257 it was 26.4 µM (inactive); in the test with OVCAR-8, 50.6 µM (inactive); with Hs-578T, 48.3 µM (inactive); with UO-31 it was 33.7 µM (inactive); with NCI-H522, 22.5 µM (inactive). In addition, the GI50 in the test on SF-268 is 41.9 µM (inactive); with SK-MEL-2, 25.9 µM (inactive); with DU-145 it was 39.4 µM (inactive); with K562, 11.6 µM (inactive); in the test on HL-60, 17 µM (inactive); with LOX IMVI it was 14.7 µM (inactive). The GI50 was 41.9 µM (inactive) in the test with ACHN; 32.8 µM (inactive) in the test on MCF7; 11.5 µM (inactive) in the test on CCRF-CEM; 36.1 µM (inactive) in the test on EKVX; 48.5 µM (inactive) with SNB-19; 39.3 µM (inactive) in the test on OVCAR-5. In addition, in the test on SF-539, the GI50 is 34.4 µM (inactive).

Regarding `COC(=O)C(CCC1CC(OC)N(C(=O)OCc2ccccc2)C1)/N=C/c1ccccc1` (configuration not stated), the GI50 with KM12 was 94.8 µM (inactive); in the test on UACC-257 it was 31.2 µM (inactive); with OVCAR-8, 96.2 µM (inactive); with Hs-578T, > 100 µM (inactive); with UO-31, 91.6 µM (inactive); in the test on NCI-H522 it was 30.6 µM (inactive). The GI50 with SF-268 was > 100 µM (inactive); in the test with SK-MEL-2 it was 26.1 µM (inactive); with DU-145, > 100 µM (inactive); in the test with K562, 45.2 µM (inactive); in the test on HL-60, 47.8 µM (inactive); with LOX IMVI it was > 100 µM (inactive). Also, the GI50 is > 100 µM (inactive) in the test on ACHN; 60 µM (inactive) in the test on MCF7; 41.9 µM (inactive) with CCRF-CEM; 55.2 µM (inactive) in the test on EKVX; > 100 µM (inactive) with SNB-19; > 100 µM (inactive) in the test on OVCAR-5. The GI50 in the test on SF-539 was > 100 µM (inactive).

Turning to `CN1N(c2ccccc2)C(=O)C2=NC=C(C(=O)c3ccccc3)C(=N)C21C` (configuration not stated), the GI50 in the test with UACC-257, in the test with Hs-578T, in the test on UO-31, in the test with NCI-H522, in the test on SF-268 and with SK-MEL-2 was > 100 µM (inactive) each time. Also, the GI50 in the test on DU-145, in the test on K562, with HL-60, in the test with LOX IMVI, in the test on ACHN and with MCF7 was > 100 µM (inactive) in each case. Moreover, the GI50 in the test on CCRF-CEM, in the test with EKVX, with SNB-19, in the test on OVCAR-5 and in the test on SF-539 was > 100 µM (inactive) in each case.

For the molecule `COc1ccc2nc3c([N+](=O)[O-])ccc4c3c(c2c1)N(CCCN(C)C)C(=S)N4CCCN(C)C`, the GI50 with KM12 is 2.5 µM (inactive); in the test with UACC-257, 6.12 µM (inactive); in the test with OVCAR-8, 5.79 µM (inactive); with Hs-578T, 7.94 µM (inactive); with UO-31, 7.85 µM (inactive); in the test with NCI-H522, 1.53 µM (inactive). For the same molecule, the GI50 is 4.46 µM (inactive) with SF-268; 16.1 µM (inactive) in the test with SK-MEL-2; 5.16 µM (inactive) in the test on DU-145; 1.77 µM (inactive) in the test with K562; 66.4 µM (inactive) with HL-60; 3.28 µM (inactive) in the test with LOX IMVI. Also, the GI50 in the test on ACHN is 4.1 µM (inactive); in the test on MCF7, 5.07 µM (inactive); in the test on CCRF-CEM, 4.98 µM (inactive); with EKVX, 3.74 µM (inactive); with SNB-19, 9.71 µM (inactive); with OVCAR-5, 14.6 µM (inactive). In the test on SF-539, the GI50 is 4 µM (inactive).

For `COc1cc2c(cc1[N+](=O)[O-])C(=O)C(Br)(Br)CCC2`, the GI50 in the test on KM12 is 3.78 µM (inactive); with UACC-257 it was 13.6 µM (inactive); in the test on OVCAR-8, 2.25 µM (inactive); in the test with Hs-578T, 5.75 µM (inactive); in the test with UO-31, 1.61 µM (inactive); in the test with NCI-H522, 0.771 µM (active). In addition, the GI50 in the test with SF-268 is 4.14 µM (inactive); with SK-MEL-2, 2.13 µM (inactive); in the test on DU-145, 7.18 µM (inactive); in the test with K562, 1.09 µM (active); in the test on HL-60, 3.22 µM (inactive); with LOX IMVI, 0.4 µM (active). In addition, the GI50 with ACHN is 2.11 µM (inactive); with MCF7 it was 2.22 µM (inactive); in the test with CCRF-CEM, 0.101 µM (active); in the test on EKVX, 2.12 µM (inactive); in the test on SNB-19 it was 7.01 µM (inactive); in the test with OVCAR-5, 1.91 µM (inactive). Besides, in the test with SF-539, the GI50 is 1.9 µM (inactive).

For `CC(=O)O[C@H]1C(=O)[C@@]2(C)[C@H]([C@H](OC(=O)c3ccccc3)[C@]3(O)C[C@H](OC(=O)[C@H](O)[C@@H](NC(=O)CC(C)(C)C)c4ccccc4)C(C)=C1C3(C)C)C1(OC(C)=O)CO[C@@H]1C[C@@H]2O` (some centres not stated), the GI50 is 0.00684 µM (active) in the test on UACC-257; 0.00283 µM (active) in the test with OVCAR-8; < 0.001 µM (active) in the test on Hs-578T; 3.96 µM (inactive) with UO-31; 0.00143 µM (active) in the test with NCI-H522; 0.0023 µM (active) in the test on SF-268. Besides, the GI50 in the test on SK-MEL-2 is 0.002 µM (active); with DU-145, 0.00836 µM (active); with K562, 0.00113 µM (active); with HL-60, 0.00105 µM (active); in the test on LOX IMVI it was 0.00175 µM (active); in the test on ACHN it was 0.0764 µM (active). Moreover, the GI50 in the test with MCF7 was < 0.001 µM (active); in the test with CCRF-CEM, 0.00171 µM (active); in the test on EKVX it was 0.193 µM (active); with SNB-19, 0.122 µM (active); with SF-539, 0.00127 µM (active).
